In US20030068615A1, “Polypeptides that bind HIV gp120 and related nucleic acids, antibodies, compositions, and methods of use” (priority 1999, published 2003):
“And” between values parts separate entries of the source, which are not always exact repeats. Identical values can stand only once. Like-named read-outs stand apart in the source and are kept apart here.

Target: HIV-1LAI envelope gp120 (Human immunodeficiency virus type 1 group M subtype B, UniProt P03377)
Type: binding
Conditions: for Binding Results For Window Length (counts bound-background), 9 / Binding Results For Window Length (counts bound-background), 12 / Binding Results For Window Length (counts bound-background), 15 / Binding Results For Window Length (counts bound-background), 18: STRL33 amino terminus; for Binding Results For Window Length (counts bound-background), 9: 9-mer starting at the first residue of the printed sequence; for Binding Results For Window Length (counts bound-background), 12: 12-mer starting at the first residue of the printed sequence; for Binding Results For Window Length (counts bound-background), 15: 15-mer starting at the first residue of the printed sequence; for Binding Results For Window Length (counts bound-background), 18: 18-mer starting at the first residue of the printed sequence; for number of radioactive decays (counts) counted: human CD4 21-mer scan, empty control 2075; for Counts per 20′ Average-background: CCR5 18-mer scan, radiolabeled HIV-1LAI gp120
[1] = STRL33 18-mer scan, background subtracted, first of two count columns
[2] = STRL33 18-mer scan, background subtracted, second of two count columns
[3] = Panel D, 9-mers and 12-mers of CD4, empty control […]
[4] = Panel B, 15-mers and 18-mers of CD4, empty control 575
[5] = Panel F, sequential alanine replacements of CD4 polypeptides, duplicate series, empty control 569
[6] = Panel E, 9-mers and 12-mers of CD4, empty control 571
[7] = Panel C, 15-mers and 18-mers of CD4, empty control 556
[8] = Panel A, 21-mers of CD4, empty control 515 and 617
[9] = CXCR4 18-mer scan, background subtracted, empty control 0
[10] = CXCR4 18-mer scan, empty control 412

DSSQEEHQAFLQFSK
Binding Results For Window Length (counts bound-background), 9 (background subtracted): 147 counts
Binding Results For Window Length (counts bound-background), 12 (background subtracted): 882 counts
Binding Results For Window Length (counts bound-background), 15 (background subtracted): 4588 counts

DSSQEEHQAFLQFSKVFL [STRL33 segment 17-34]
radioactive counts recorded in twenty minutes [1]: 869.5 counts
radioactive counts recorded in twenty minutes [2]: 2152.5 counts

DTHLLQGQS
COUNTS of radiolabeled gp120 retained [3]: 578 counts

DTHLLQGQSLTL
COUNTS of radiolabeled gp120 retained [3]: 527 counts

DTHLLQGQSLTLTLE
COUNTS of radiolabeled gp120 retained [4]: 1622 counts

DTYICEVED
COUNTS of radiolabeled gp120 retained [3]: 1043 counts

DTYICEVEDQKE
COUNTS of radiolabeled gp120 retained [3]: 720 counts

DTYICEVEDQKEEVQ
COUNTS of radiolabeled gp120 retained [4]: 1071 counts

DTYICEVEDQKEEVQLLV
COUNTS of radiolabeled gp120 retained [4]: 1648 counts

DYGFSSFNDSSQEEHQAF [STRL33 segment 9-26]
radioactive counts recorded in twenty minutes [1]: 8579.5 counts
radioactive counts recorded in twenty minutes [2]: 8909.5 counts
Binding Results For Window Length (counts bound-background), 9 (background subtracted): 701 counts
Binding Results For Window Length (counts bound-background), 12 (background subtracted): 573 counts
Binding Results For Window Length (counts bound-background), 15 (background subtracted): 595 counts
Binding Results For Window Length (counts bound-background), 18 (background subtracted): 440 counts

DYHEDYGFSSFNDSSQEE [STRL33 segment 5-22]
radioactive counts recorded in twenty minutes [1]: 3357.5 counts
radioactive counts recorded in twenty minutes [2]: 3689.5 counts
Binding Results For Window Length (counts bound-background), 9 (background subtracted): 851 counts
Binding Results For Window Length (counts bound-background), 12 (background subtracted): 1554 counts
Binding Results For Window Length (counts bound-background), 15 (background subtracted): 1240 counts
Binding Results For Window Length (counts bound-background), 18 (background subtracted): 1191 counts

EAISTVVLATQMTLGFFL [STRL33 segment 185-202]
radioactive counts recorded in twenty minutes [1]: 3973.5 counts
radioactive counts recorded in twenty minutes [2]: 3745.5 counts

EAVQLLVFGLTANSD
COUNTS of radiolabeled gp120 retained [5]: 14220 counts and 13213 counts

EDQKEEVQL
COUNTS of radiolabeled gp120 retained [3]: 564 counts

EDQKEEVQLLVF
COUNTS of radiolabeled gp120 retained [3]: 1379 counts

EDQKEEVQLLVFGLT
COUNTS of radiolabeled gp120 retained [4]: 3633 counts

EDQKEEVQLLVFGLTANS
COUNTS of radiolabeled gp120 retained [4]: 3416 counts

EDSDTYICE
COUNTS of radiolabeled gp120 retained [3]: 650 counts

EDSDTYICEVED
COUNTS of radiolabeled gp120 retained [3]: 956 counts

EDSDTYICEVEDQKE
COUNTS of radiolabeled gp120 retained [4]: 815 counts

EDSDTYICEVEDQKEEVQ
COUNTS of radiolabeled gp120 retained [4]: 788 counts

EDYGFSSFNDSSQEEHQA
Binding Results For Window Length (counts bound-background), 9 (background subtracted): 953 counts
Binding Results For Window Length (counts bound-background), 12 (background subtracted): 817 counts
Binding Results For Window Length (counts bound-background), 15 (background subtracted): 1152 counts
Binding Results For Window Length (counts bound-background), 18 (background subtracted): 548 counts

EEAQLLVFGLTANSD
COUNTS of radiolabeled gp120 retained [5]: 18124 counts and 16296 counts

EEHQAFLQFSKV
Binding Results For Window Length (counts bound-background), 9 (background subtracted): 6060 counts
Binding Results For Window Length (counts bound-background), 12 (background subtracted): 5598 counts

EEHQAFLQFSKVFLPCMY [STRL33 segment 21-38]
radioactive counts recorded in twenty minutes [1]: 2316.5 counts
radioactive counts recorded in twenty minutes [2]: 1819.5 counts

EEVALLVFGLTANSD
COUNTS of radiolabeled gp120 retained [5]: 10890 counts and 13415 counts

EEVQALVFGLTANSD
COUNTS of radiolabeled gp120 retained [5]: 11258 counts and 12603 counts

EEVQLAVFGLTANSD
COUNTS of radiolabeled gp120 retained [5]: 11954 counts and 13690 counts

EEVQLLAFGLTANSD
COUNTS of radiolabeled gp120 retained [5]: 13317 counts and 16286 counts

EEVQLLVAGLTANSD
COUNTS of radiolabeled gp120 retained [5]: 9573 counts and 11480 counts

EEVQLLVFALTANSD
COUNTS of radiolabeled gp120 retained [5]: 19348 counts and 18254 counts

EEVQLLVFG
COUNTS of radiolabeled gp120 retained [3]: 3170 counts

EEVQLLVFGATANSD
COUNTS of radiolabeled gp120 retained [5]: 19978 counts and 10408 counts

EEVQLLVFGLAANSD
COUNTS of radiolabeled gp120 retained [5]: 18863 counts and 19973 counts

EEVQLLVFGLTA
COUNTS of radiolabeled gp120 retained [3]: 3261 counts

EEVQLLVFGLTAASD
COUNTS of radiolabeled gp120 retained [5]: 19200 counts and 19390 counts

EEVQLLVFGLTANAD
COUNTS of radiolabeled gp120 retained [5]: 17928 counts and 17684 counts

EEVQLLVFGLTANSA
COUNTS of radiolabeled gp120 retained [5]: 22206 counts and 18227 counts

EEVQLLVFGLTANSD
COUNTS of radiolabeled gp120 retained [4]: 6423 counts
COUNTS of radiolabeled gp120 retained [5]: 18721 counts and 18582 counts and 19738 counts and 21338 counts
COUNTS of radiolabeled gp120 retained (Panel G, alanine replacements and serial truncations (Z) of CD4 polypeptides, empty control 580): 18040 counts and 23357 counts

EEVQLLVFGLTANSDTHL
COUNTS of radiolabeled gp120 retained [4]: 783 counts

EEVQLLVFGLTTNSD
COUNTS of radiolabeled gp120 retained [5]: 20021 counts and 20100 counts

EFKIDIVVL
COUNTS of radiolabeled gp120 retained [6]: 665 counts

EFKIDIVVLAFQ
COUNTS of radiolabeled gp120 retained [6]: 659 counts

EFKIDIVVLAFQKAS
COUNTS of radiolabeled gp120 retained [7]: 1188 counts

EFKIDIVVLAFQKASSIV
COUNTS of radiolabeled gp120 retained [7]: 799 counts

EFKIDIVVLAFQKASSIVYKK
COUNTS of radiolabeled gp120 retained [8]: 649 counts

EFSFPLAFT
COUNTS of radiolabeled gp120 retained [6]: 658 counts

EFSFPLAFTVEK
COUNTS of radiolabeled gp120 retained [6]: 585 counts

EFSFPLAFTVEKLTG
COUNTS of radiolabeled gp120 retained [7]: 920 counts

EFSFPLAFTVEKLTGSGE
COUNTS of radiolabeled gp120 retained [7]: 668 counts

EFSFPLAFTVEKLTGSGELWW
COUNTS of radiolabeled gp120 retained [8]: 681 counts

EGEQVEFSF
COUNTS of radiolabeled gp120 retained [6]: 735 counts

EGEQVEFSFPLA
COUNTS of radiolabeled gp120 retained [6]: 1456 counts

EGEQVEFSFPLAFTV
COUNTS of radiolabeled gp120 retained [7]: 3270 counts

EGEQVEFSFPLAFTVEKL
COUNTS of radiolabeled gp120 retained [7]: 2164 counts

EGEQVEFSFPLAFTVEKLTGS
COUNTS of radiolabeled gp120 retained [8]: 739 counts

EHDYHEDYGFSSFNDSSQ
Binding Results For Window Length (counts bound-background), 9 (background subtracted): 509 counts
Binding Results For Window Length (counts bound-background), 12 (background subtracted): 937 counts
Binding Results For Window Length (counts bound-background), 15 (background subtracted): 2235 counts
Binding Results For Window Length (counts bound-background), 18 (background subtracted): 1219 counts

EHQAFLQFS
Binding Results For Window Length (counts bound-background), 9 (background subtracted): 7505 counts

EKKTCQCPHRFQKTCSPI
number of radioactive decays (counts) counted: 2006 counts

EKLTGSGEL
COUNTS of radiolabeled gp120 retained [6]: 541 counts

EKLTGSGELWWQ
COUNTS of radiolabeled gp120 retained [6]: 543 counts

EKLTGSGELWWQAER
COUNTS of radiolabeled gp120 retained [7]: 683 counts

EKVVYVGVWIPALLLTIP [CXCR4 segment 153-170]
radioactive counts recorded in twenty minutes [9]: 147 counts
radioactive counts recorded in twenty minutes [10]: 559 counts

ENTVHKWISITEALAFFH [CXCR4 segment 277-294]
radioactive counts recorded in twenty minutes [9]: 315 counts
radioactive counts recorded in twenty minutes [10]: 727 counts

EQVEFSFPL
COUNTS of radiolabeled gp120 retained [6]: 1032 counts

EQVEFSFPLAFT
COUNTS of radiolabeled gp120 retained [6]: 1556 counts

EQVEFSFPLAFTVEK
COUNTS of radiolabeled gp120 retained [7]: 4135 counts

EQVEFSFPLAFTVEKLTG
COUNTS of radiolabeled gp120 retained [7]: 798 counts

EQVEFSFPLAFTVEKLTGSGE
COUNTS of radiolabeled gp120 retained [8]: 765 counts

ERASSVYTRSTGEQEISV [CCR5 segment 333-]
Counts per 20′ Average-background (background subtracted): 84 counts per 20′

ESNIKVLPTWSTPVQPMALIV [human CD4 381-401]
number of radioactive decays (counts) counted: 1992 counts

EVEDQKEEV
COUNTS of radiolabeled gp120 retained [3]: 587 counts

EVEDQKEEVQLL
COUNTS of radiolabeled gp120 retained [3]: 508 counts

EVEDQKEEVQLLVFG
COUNTS of radiolabeled gp120 retained [4]: 2805 counts

EVEDQKEEVQLLVFGLTA
COUNTS of radiolabeled gp120 retained [4]: 3647 counts

EVNLVVMRATQLQKNLTCEVW [human CD4 311-331]
number of radioactive decays (counts) counted: 2183 counts

EVQLLVFGL
COUNTS of radiolabeled gp120 retained [3]: 2146 counts

EVQLLVFGLTAN
COUNTS of radiolabeled gp120 retained [3]: 1838 counts

EVQLLVFGLTANSDT
COUNTS of radiolabeled gp120 retained [4]: 2689 counts

EVQLLVFGLTANSDTHLL
COUNTS of radiolabeled gp120 retained [4]: 667 counts

FACWLPYYIGISIDSFIL [CXCR4 segment 249-266]
radioactive counts recorded in twenty minutes [9]: 202 counts
radioactive counts recorded in twenty minutes [10]: 614 counts

FFIILLTIDRYLAVVHAV [CCR5 segment 117-]
Counts per 20′ Average-background (background subtracted): 77 counts per 20′

FGLTANSDT
COUNTS of radiolabeled gp120 retained [3]: 563 counts
